From ChEMBL document CHEMBL1124186, “Synthesis and evaluation of tylosin-related macrolides modified at the aldehyde function: a new series of orally effective antibiotics” (1988)
Converted amounts (≈) assume the structure as drawn.

Legend:
[1] = tested on: Staphylococcus epidermidis; assay: In vitro antimicrobial activity against Staphylococcus epidermidis EPI1; format: functional
Staphylococcus aureus = assay: In vitro antimicrobial activity against Staphylococcus aureus X1; format: functional
Enterococcus faecium = assay: In vitro antimicrobial activity against Streptococcus faecium X66; format: functional, streptococcus fae-cium
Streptococcus pyogenes = assay: In vitro antimicrobial activity against Streptococcus pyogenes C203; format: functional
Haemophilus influenzae = assay: In vitro antimicrobial activity against Haemophilus influenzae.; format: functional
Streptococcus pneumoniae = assay: In vitro antimicrobial activity against Streptococcus pneumoniae; format: functional

Compound	MIC [1] [µg/mL]	MIC (Staphylococcus aureus) [µg/mL]	MIC (Enterococcus faecium) [µg/mL]	MIC (Streptococcus pyogenes) [µg/mL]	MIC (Haemophilus influenzae) [µg/mL]	MIC (Streptococcus pneumoniae) [µg/mL]
CC[C@H]1OC(=O)C[C@@H](O)[C@H](C)[C@H]2OCC[C@H]2C[C@@H](C)C(=O)/C=C/C(C)=C/[C@@H]1CO[C@@H]1O[C@H](C)[C@@H](O)[C@@H](OC)[C@H]1OC	> 128	> 128	> 128	> 128	> 128	> 128
CC[C@H]1OC(=O)C[C@@H](O)[C@H](C)[C@@H](O[C@@H]2O[C@H](C)[C@@H](O)[C@H](N(C)C)[C@H]2O)[C@@H](CCN2C(=O)c3ccccc3C2=O)C[C@@H](C)C(=O)/C=C/C(C)=C/[C@@H]1C	8 (≈ 11.2 µM)	8 (≈ 11.2 µM)	32 (≈ 44.9 µM)	64 (≈ 89.8 µM)	128 (≈ 180 µM)	64 (≈ 89.8 µM)
CC[C@H]1OC(=O)C[C@@H](O)[C@H](C)[C@@H](O[C@@H]2O[C@H](C)[C@@H](O[C@H]3C[C@@](C)(O)[C@@H](O)[C@H](C)O3)[C@H](N(C)C)[C@H]2O)[C@@H](CCOc2ccc(-c3ccccc3)cc2)C[C@@H](C)C(=O)/C=C/C(C)=C/[C@@H]1CO[C@@H]1O[C@H](C)[C@@H](O)[C@@H](OC)[C@H]1OC	2 (≈ 1.87 µM)	2 (≈ 1.87 µM)	8 (≈ 7.47 µM)	2 (≈ 1.87 µM)	> 128	1 (≈ 0.934 µM)
CC[C@H]1OC(=O)C[C@@H](O)[C@H](C)[C@@H](O[C@@H]2O[C@H](C)[C@@H](O[C@H]3C[C@@](C)(O)[C@@H](O)[C@H](C)O3)[C@H](N(C)C)[C@H]2O)[C@@H](CCOc2ccc(OC)cc2)C[C@@H](C)C(=O)/C=C/C(C)=C/[C@@H]1CO[C@@H]1O[C@H](C)[C@@H](O)[C@@H](OC)[C@H]1OC	2 (≈ 1.95 µM)	0.5 (≈ 0.488 µM)	128 (≈ 125 µM)	1 (≈ 0.976 µM)	128 (≈ 125 µM)	8 (≈ 7.81 µM)
CC[C@H]1OC(=O)C[C@@H](O)[C@H](C)[C@@H](O[C@@H]2O[C@H](C)[C@@H](O[C@H]3C[C@@](C)(O)[C@@H](O)[C@H](C)O3)[C@H](N(C)C)[C@H]2O)[C@@H](CC=O)C[C@@H](C)C(=O)/C=C/C(C)=C/[C@@H]1C	0.5 (≈ 0.689 µM)	0.5 (≈ 0.689 µM)	0.5 (≈ 0.689 µM)	0.25 (≈ 0.344 µM)	8 (≈ 11 µM)	0.12 (≈ 0.165 µM)
CC[C@H]1C[C@@H](C)C(=O)/C=C/C(C)=C/[C@H](C)[C@@H](CC)OC(=O)C[C@@H](O)[C@H](C)[C@H]1O[C@@H]1O[C@H](C)[C@@H](O[C@H]2C[C@@](C)(O)[C@@H](O)[C@H](C)O2)[C@H](N(C)C)[C@H]1O	64 (≈ 89.9 µM)	128 (≈ 180 µM)	> 128	128 (≈ 180 µM)	> 128	64 (≈ 89.9 µM)
CC[C@H]1C[C@@H](C)C(=O)/C=C/C(C)=C/[C@H](CO)[C@@H](CC)OC(=O)C[C@@H](O)[C@H](C)[C@H]1O[C@@H]1O[C@H](C)[C@@H](O[C@H]2C[C@@](C)(O)[C@@H](O)[C@H](C)O2)[C@H](N(C)C)[C@H]1O	128 (≈ 176 µM)	128 (≈ 176 µM)	> 128	> 128	> 128	> 128
CC[C@H]1OC(=O)C[C@@H](O)[C@H](C)[C@@H](O[C@@H]2O[C@H](C)[C@@H](O)[C@H](N(C)C)[C@H]2O)[C@@H](CCOCCc2ccccc2)C[C@@H](C)C(=O)/C=C/C(C)=C/[C@@H]1CO[C@@H]1O[C@H](C)[C@@H](O)[C@@H](OC)[C@H]1OC	0.25 (≈ 0.285 µM)	0.25 (≈ 0.285 µM)	8 (≈ 9.11 µM)	1 (≈ 1.14 µM)	–	0.25 (≈ 0.285 µM)
CC[C@H]1C[C@@H](C)C(=O)/C=C/C(C)=C/[C@H](CO[C@@H]2O[C@H](C)[C@@H](O)[C@@H](O)[C@H]2OC)[C@@H](CC)OC(=O)C[C@@H](O)[C@H](C)[C@H]1O[C@@H]1O[C@H](C)[C@@H](O)[C@H](N(C)C)[C@H]1O	1.2 (≈ 1.61 µM)	0.25 (≈ 0.336 µM)	8 (≈ 10.8 µM)	0.5 (≈ 0.672 µM)	–	4 (≈ 5.38 µM)
CC[C@H]1OC(=O)C[C@@H](O)[C@H](C)[C@@H](O[C@@H]2O[C@H](C)[C@@H](O)[C@H](N(C)C)[C@H]2O)[C@@H](CCO)C[C@@H](C)C(=O)/C=C/C(C)=C/[C@@H]1C	16 (≈ 27.4 µM)	4 (≈ 6.85 µM)	32 (≈ 54.8 µM)	16 (≈ 27.4 µM)	32 (≈ 54.8 µM)	16 (≈ 27.4 µM)
CC[C@H]1OC(=O)C[C@@H](O)[C@H](C)[C@@H](O[C@@H]2O[C@H](C)[C@@H](O[C@H]3C[C@@](C)(O)[C@@H](O)[C@H](C)O3)[C@H](N(C)C)[C@H]2O)[C@@H](CCN2CCCCCCC2)C[C@@H](C)C(=O)/C=C/C(C)=C/[C@@H]1CO[C@@H]1O[C@H](C)[C@@H](O)[C@@H](O)[C@H]1OC	8 (≈ 8.01 µM)	4 (≈ 4 µM)	64 (≈ 64 µM)	2 (≈ 2 µM)	> 128	16 (≈ 16 µM)
CC[C@H]1OC(=O)C[C@@H](O)[C@H](C)[C@@H](O[C@@H]2O[C@H](C)[C@@H](O)[C@H](N(C)C)[C@H]2O)[C@@H](CCOc2ccc(OC)cc2)C[C@@H](C)C(=O)/C=C/C(C)=C/[C@@H]1CO[C@@H]1O[C@H](C)[C@@H](O)[C@@H](OC)[C@H]1OC	0.25 (≈ 0.284 µM)	0.25 (≈ 0.284 µM)	4 (≈ 4.55 µM)	1 (≈ 1.14 µM)	–	1 (≈ 1.14 µM)
CC[C@H]1OC(=O)C[C@@H](O)[C@H](C)[C@@H](O[C@@H]2O[C@H](C)[C@@H](O[C@H]3C[C@@](C)(O)[C@@H](O)[C@H](C)O3)[C@H](N(C)C)[C@H]2O)[C@@H](CCO)C[C@@H](C)C(=O)/C=C/C(C)=C/[C@@H]1C	32 (≈ 44 µM)	64 (≈ 87.9 µM)	64 (≈ 87.9 µM)	64 (≈ 87.9 µM)	> 128	64 (≈ 87.9 µM)
CC[C@H]1OC(=O)C[C@@H](O)[C@H](C)[C@@H](O[C@@H]2O[C@H](C)[C@@H](O)[C@H](N(C)C)[C@H]2O)[C@@H](CCOc2cccc(N(C)C)c2)C[C@@H](C)C(=O)/C=C/C(C)=C/[C@@H]1CO[C@@H]1O[C@H](C)[C@@H](O)[C@@H](OC)[C@H]1OC	0.5 (≈ 0.56 µM)	0.5 (≈ 0.56 µM)	4 (≈ 4.48 µM)	0.25 (≈ 0.28 µM)	–	1 (≈ 1.12 µM)

Continued, values first:

MIC [1] [µg/mL]	MIC (Staphylococcus aureus) [µg/mL]	MIC (Enterococcus faecium) [µg/mL]	MIC (Streptococcus pyogenes) [µg/mL]	MIC (Haemophilus influenzae) [µg/mL]	MIC (Streptococcus pneumoniae) [µg/mL]	Compound
4 (≈ 3.72 µM)	2 (≈ 1.86 µM)	> 128	8 (≈ 7.43 µM)	> 128	8 (≈ 7.43 µM)	CCOC(=O)NN(CC[C@H]1C[C@@H](C)C(=O)/C=C/C(C)=C/[C@H](CO[C@@H]2O[C@H](C)[C@@H](O)[C@@H](OC)[C@H]2OC)[C@@H](CC)OC(=O)C[C@@H](O)[C@H](C)[C@H]1O[C@@H]1O[C@H](C)[C@@H](O[C@H]2C[C@@](C)(O)[C@@H](O)[C@H](C)O2)[C@H](N(C)C)[C@H]1O)C(=O)OCC
0.25 (≈ 0.306 µM)	0.5 (≈ 0.613 µM)	8 (≈ 9.8 µM)	0.12 (≈ 0.147 µM)	16 (≈ 19.6 µM)	2 (≈ 2.45 µM)	CC[C@H]1OC(=O)C[C@@H](O)[C@H](C)[C@@H](O[C@@H]2O[C@H](C)[C@@H](O)[C@H](N(C)C)[C@H]2O)[C@@H](CCOC(C)=O)C[C@@H](C)C(=O)/C=C/C(C)=C/[C@@H]1CO[C@@H]1O[C@H](C)[C@@H](O)[C@@H](OC)[C@H]1OC
0.25 (≈ 0.43 µM)	0.25 (≈ 0.43 µM)	0.5 (≈ 0.859 µM)	0.25 (≈ 0.43 µM)	1 (≈ 1.72 µM)	0.12 (≈ 0.206 µM)	CC[C@H]1OC(=O)C[C@@H](O)[C@H](C)[C@@H](O[C@@H]2O[C@H](C)[C@@H](O)[C@H](N(C)C)[C@H]2O)[C@@H](CC=O)C[C@@H](C)C(=O)/C=C/C(C)=C/[C@@H]1C
16 (≈ 28.2 µM)	8 (≈ 14.1 µM)	64 (≈ 113 µM)	8 (≈ 14.1 µM)	64 (≈ 113 µM)	16 (≈ 28.2 µM)	CC[C@H]1C[C@@H](C)C(=O)/C=C/C(C)=C/[C@H](C)[C@@H](CC)OC(=O)C[C@@H](O)[C@H](C)[C@H]1O[C@@H]1O[C@H](C)[C@@H](O)[C@H](N(C)C)[C@H]1O
16 (≈ 22.4 µM)	64 (≈ 89.6 µM)	128 (≈ 179 µM)	64 (≈ 89.6 µM)	> 128	64 (≈ 89.6 µM)	CC[C@H]1OC(=O)C[C@@H](O)[C@H](C)[C@@H](O[C@@H]2O[C@H](C)[C@@H](O[C@H]3C[C@@](C)(O)[C@@H](O)[C@H](C)O3)[C@H](N(C)C)[C@H]2O)[C@@H](C)C[C@@H](C)C(=O)/C=C/C(C)=C/[C@@H]1CO
128 (≈ 172 µM)	> 128	> 128	64 (≈ 86 µM)	> 128	64 (≈ 86 µM)	CC[C@H]1OC(=O)C[C@@H](O)[C@H](C)[C@@H](O[C@@H]2O[C@H](C)[C@@H](O[C@H]3C[C@@](C)(O)[C@@H](O)[C@H](C)O3)[C@H](N(C)C)[C@H]2O)[C@@H](CCO)C[C@@H](C)C(=O)/C=C/C(C)=C/[C@@H]1CO
0.5 (≈ 0.575 µM)	0.5 (≈ 0.575 µM)	16 (≈ 18.4 µM)	0.5 (≈ 0.575 µM)	32 (≈ 36.8 µM)	2 (≈ 2.3 µM)	CC[C@H]1OC(=O)C[C@@H](O)[C@H](C)[C@@H](O[C@@H]2O[C@H](C)[C@@H](O)[C@H](N(C)C)[C@H]2O)[C@@H](CCI)C[C@@H](C)C(=O)/C=C/C(C)=C/[C@@H]1CO[C@@H]1O[C@H](C)[C@@H](O)[C@@H](O)[C@H]1OC
1 (≈ 0.962 µM)	1 (≈ 0.962 µM)	128 (≈ 123 µM)	2 (≈ 1.92 µM)	> 128	16 (≈ 15.4 µM)	CC[C@H]1OC(=O)C[C@@H](O)[C@H](C)[C@@H](O[C@@H]2O[C@H](C)[C@@H](O[C@H]3C[C@@](C)(O)[C@@H](O)[C@H](C)O3)[C@H](N(C)C)[C@H]2O)[C@@H](CCOc2ccc([N+](=O)[O-])cc2)C[C@@H](C)C(=O)/C=C/C(C)=C/[C@@H]1CO[C@@H]1O[C@H](C)[C@@H](O)[C@@H](OC)[C@H]1OC
0.25 (≈ 0.305 µM)	0.25 (≈ 0.305 µM)	8 (≈ 9.77 µM)	0.25 (≈ 0.305 µM)	16 (≈ 19.5 µM)	2 (≈ 2.44 µM)	CC[C@H]1OC(=O)C[C@@H](O)[C@H](C)[C@@H](O[C@@H]2O[C@H](C)[C@@H](O)[C@H](N(C)C)[C@H]2O)[C@@H](CCO[N+](=O)[O-])C[C@@H](C)C(=O)/C=C/C(C)=C/[C@@H]1CO[C@@H]1O[C@H](C)[C@@H](O)[C@@H](OC)[C@H]1OC
2 (≈ 1.88 µM)	1 (≈ 0.941 µM)	> 128	1 (≈ 0.941 µM)	> 128	16 (≈ 15.1 µM)	CC[C@H]1OC(=O)C[C@@H](O)[C@H](C)[C@@H](O[C@@H]2O[C@H](C)[C@@H](O[C@H]3C[C@@](C)(O)[C@@H](O)[C@H](C)O3)[C@H](N(C)C)[C@H]2O)[C@@H](CCOc2cc(Cl)cc(Cl)c2)C[C@@H](C)C(=O)/C=C/C(C)=C/[C@@H]1CO[C@@H]1O[C@H](C)[C@@H](O)[C@@H](OC)[C@H]1OC
